# Assays:
# Format in all cases: functional, cell-based
# CCRF-CEM = assay: Cytostatic activity against Homo sapiens (human) CEM cells after 72 hr
# MOLT-4 = assay: Cytostatic activity against Homo sapiens (human) Molt4/C8 cells after 72 hr; conditions: MOLT-4, 72 h
# L1210 = assay: Cytostatic activity against Mus musculus (mouse) L1210 cells after 48 hr; conditions: L1210, 48 h
SMILES,IC50 (CCRF-CEM),IC50 (MOLT-4),IC50 (L1210)
O=C1/C(=N\NC(=S)Nc2ccc(Cl)cc2)c2cc(Cl)ccc2N1Cc1ccc(F)cc1,50 µM,48 µM,103 µM
O=C1/C(=N\NC(=S)Nc2ccc(Cl)cc2)c2cc(Br)ccc2N1Cc1ccc(F)cc1,61 µM,48 µM,196 µM
Cc1ccc(NC(=S)N/N=C2\C(=O)N(Cc3ccc(F)cc3)c3ccc(Br)cc32)cc1,132 µM,57 µM,190 µM
Cc1ccc(CN2C(=O)/C(=N\NC(=S)Nc3ccc(Cl)cc3)c3cc(Br)ccc32)cc1,98 µM,74 µM,193 µM
Cc1ccc(NC(=S)N/N=C2\C(=O)N(Cc3ccc(Cl)cc3)c3ccc(Br)cc32)cc1,≥ 500 µM,288 µM,≥ 500 µM
Cc1ccc(CN2C(=O)/C(=N\NC(=S)Nc3ccc(C)cc3)c3cc(Br)ccc32)cc1,≥ 500 µM,393 µM,≥ 500 µM
O=C1/C(=N\NC(=S)Nc2ccc(Cl)cc2)c2cc(Br)ccc2N1Cc1ccc(Cl)cc1,392 µM,280 µM,≥ 500 µM
O=C1Nc2ccc(Cl)cc2/C1=N/NC(=S)Nc1ccc(Cl)cc1,61 µM,64 µM,108 µM
O=C1Nc2ccc(Br)cc2/C1=N/NC(=S)Nc1ccc(Cl)cc1,61 µM,29 µM,88 µM
Cc1ccc(NC(=S)N/N=C2\C(=O)Nc3ccc(Br)cc32)cc1,6.8 µM,4.9 µM,9.6 µM
O=C1Nc2cc(Cl)c(F)cc2/C1=N/NC(=S)Nc1ccc(Cl)cc1,48 µM,43 µM,69 µM
Cc1ccc(NC(=S)N/N=C2\C(=O)Nc3cc(Cl)c(F)cc32)cc1,132 µM,112 µM,166 µM
O=C1/C(=N\NC(=S)Nc2ccc(Cl)cc2)c2cc(F)ccc2N1Cc1ccc(F)cc1,56 µM,47 µM,154 µM
Cc1ccc(NC(=S)N/N=C2\C(=O)N(Cc3ccc(F)cc3)c3ccc(F)cc32)cc1,2.5 µM,1.5 µM,6.2 µM
Cc1ccc(CN2C(=O)/C(=N\NC(=S)Nc3ccc(Cl)cc3)c3cc(Cl)ccc32)cc1,18 µM,5.8 µM,9.8 µM
O=C1/C(=N\NC(=S)Nc2ccc(Cl)cc2)c2cc(Cl)ccc2N1Cc1ccc(Cl)cc1,68 µM,58 µM,124 µM
O=C1Nc2ccc(F)cc2/C1=N/NC(=S)Nc1ccc(Cl)cc1,25 µM,14 µM,34 µM
Cc1ccc(NC(=S)N/N=C2\C(=O)Nc3ccc(F)cc32)cc1,4.8 µM,3 µM,8.2 µM
N[C@@H](Cc1ccc(N(CCCl)CCCl)cc1)C(=O)O [MELPHALAN],–,3.2 µM,–
